Values of other authors in patent publication US20060030547A1, “Antineoplastic combinations” (Wyeth, priority 2001, published 2006).

Key:
[1] = system: histologically diverse tumor cells; settings: in vitro, background statement
orthotopic glioma = settings: nude mice, background statement
[2] = system: human glioblastoma cell line; settings: in vitro, background statement

CO[C@H]1C[C@@H]2CC[C@@H](C)[C@@](O)(O2)C(=O)C(=O)N2CCCC[C@H]2C(=O)O[C@H]([C@H](C)C[C@@H]2CC[C@@H](OC(=O)C(C)(CO)CO)[C@H](OC)C2)CC(=O)[C@H](C)/C=C(\C)[C@@H](O)[C@@H](OC)C(=O)[C@H](C)C[C@H](C)/C=C/C=C/C=C/1C [CCI-779, Rapamycin 42-ester with 3-hydroxy-2-(hydroxymethyl)-2-methylpropionic acid]
cell cycle effect [1]: arrested cells in the G1 phase of the cell cycle
activity in orthotopic glioma model (orthotopic glioma): active
suppression of growth factor (platelet-derived)-induced stimulation [2]: markedly suppressed
